From US12583855B2, “RET selective inhibitor, preparation method therefor and use thereof” (SHOUYAO HOLDINGS (BEIJING) CO., LTD., priority 2019, dated 2026)
Positions count from the first letter of the chain named. pIC50: −log10 of the molar value. Each block holds one molecule with its values, some of them ahead of it.

Experiments:
VEGFR2 = VEGFR2 (Homo sapiens, UniProt P35968); assay: In vitro enzymatic activity assay on VEGFR2 (HTRF); assay type: biochemical; settings: GST-VEGFR2 0.1 nM, ATP 2.5 μM
Method: 3. n Vitro Enzymatic Activity Assay for Compounds on VEGFR2
The compounds were diluted 5-fold with 100% DMSO starting from 1 mM (7 concentrations in total), and 2 μL of each concentration was added to 48 μL of reaction buffer (50 mM HEPES pH 7.5, 0.1 mM Na3VO4, 5 mM MgCl2, 1 mM MnCl2, 1 mM DTT, 0.001% Tween 20, and 100 μg/ml BSA) for dilution and mixing. 2.5 μL of compounds and 5 μL of GST-VEGFR2 (final concentration of 0.1 nM) were added to a 384-well plate (OptiPlate-384, purchased from PerkinElmer), the mixture was mixed by centrifugation, and 2.5 μL of ATP (final concentration of 2.5 μM) and TK Peptide Substrate mixture (final concentration of 1 μM, purchased from Cisbio) were added to start the reaction, with a total reaction volume of 10 μL. The 384-well plate was placed in an incubator and reacted at 23° C. for 1.5 h before the reaction was stopped by the addition of 5 μL of TK Antibody (purchased from Cisbio) and 5 μL of Streptavidin-XL665 (purchased from Cisbio). After further incubation in the incubator for 1 h. fluorescence values (excitation at 320 nm, detecting emitted light at 665 nm and 620 nm, and a ratio of the two as an enzyme activity signal) were read on Envision (purchased from PerkinElmer). The enzymatic activity signal of VEGFR2 was measured at 7 concentrations for each compound and the data were calculated using GraphPad Prism software to obtain the IC50 value for the compound.

RET^V804M = target: T1, RET^V804M (Homo sapiens, UniProt P07949, V804M); assay: In vitro enzymatic activity assay on RET^V804M (HTRF); assay type: biochemical; settings: GST-RET^V804M (658-1114 aa) 0.02 nM, ATP 1.5 μM
T1 construct: GST-RET^V804M (658-1114 aa, final concentration of 0.02 nM)
T1 sequence (P07949 658-1114 V804M): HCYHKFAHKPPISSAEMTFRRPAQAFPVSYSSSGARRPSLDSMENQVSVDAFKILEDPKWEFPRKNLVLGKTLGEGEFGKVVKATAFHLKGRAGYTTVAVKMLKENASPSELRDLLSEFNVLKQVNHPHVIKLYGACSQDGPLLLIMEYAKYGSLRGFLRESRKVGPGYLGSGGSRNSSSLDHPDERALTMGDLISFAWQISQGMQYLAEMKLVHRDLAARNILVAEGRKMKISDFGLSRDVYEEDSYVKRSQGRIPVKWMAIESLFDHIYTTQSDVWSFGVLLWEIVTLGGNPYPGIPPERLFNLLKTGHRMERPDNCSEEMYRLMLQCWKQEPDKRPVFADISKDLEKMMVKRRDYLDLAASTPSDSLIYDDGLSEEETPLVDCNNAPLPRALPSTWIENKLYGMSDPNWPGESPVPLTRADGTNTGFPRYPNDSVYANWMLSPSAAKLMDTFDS

TT cells = assay: TT cell proliferation activity (Cell-Titer Glo); assay type: cell-based; settings: TT human thyroid carcinoma cells, 120 h
Method: 4. Determination of TT Cell Proliferation Activity of Compounds
TT cells, a human thyroid carcinoma cell line, were cultured in Ham's F-12K medium supplemented with 15% fetal bovine serum (FBS, purchased from Biological Industries, BI) and 1% penicillin/streptomycin double antibody (P/S, purchased from Life Technology) under conditions of 37° C. and 5% CO2. TT cells were plated in a 96-well plate (#3917 purchased from Corning) at a concentration of 5000 cells/195 μL/well the day before compound was detected. The compounds were diluted 3-fold with 100% DMSO starting from 10 mM (10 concentrations in total) after 24 h, and 2 μL of each concentration was diluted in 48 μL of Ham's F-12K medium. 5 μL of each diluted compound was added to the plated Cell suspension, the compound and cells were co-incubated in a cell incubator for 120 h (5 days), after the medium was aspirated. 25 μL of Cell-Titer Glo (G7570, purchased from Promega) reagent was added and re-incubated for 5-10 min. Fluorescence value was then read on Envision and the data were calculated using GraphPad Prism software to obtain IC50 values for inhibition of cell proliferation by the compounds.

RET^WT = target: T2, RET^WT (Homo sapiens, UniProt P07949); assay: In vitro enzymatic activity assay on RET^WT (HTRF); assay type: biochemical; settings: GST-RET^WT (658-1114 aa) 0.5 nM, ATP 25 μM
T2 construct: GST-RET^WT (658-1114 aa, final concentration of 0.5 nM)
T2 sequence (P07949 658-1114): T1 sequence (P07949 658-1114 V804M) with M147V
In short: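 Reaction run 2 h at 23 °C in HEPES pH 7.5 buffer with Na3VO4, MgCl2, DTT, Tween 20 and BSA; compounds tested at 7 concentrations (5-fold serial dilution in DMSO from 0.2 mM stock). HTRF detection with TK antibody and streptavidin-XL665; IC50 from curve fitting.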

Chain of VEGFR2 (P35968 20-1356): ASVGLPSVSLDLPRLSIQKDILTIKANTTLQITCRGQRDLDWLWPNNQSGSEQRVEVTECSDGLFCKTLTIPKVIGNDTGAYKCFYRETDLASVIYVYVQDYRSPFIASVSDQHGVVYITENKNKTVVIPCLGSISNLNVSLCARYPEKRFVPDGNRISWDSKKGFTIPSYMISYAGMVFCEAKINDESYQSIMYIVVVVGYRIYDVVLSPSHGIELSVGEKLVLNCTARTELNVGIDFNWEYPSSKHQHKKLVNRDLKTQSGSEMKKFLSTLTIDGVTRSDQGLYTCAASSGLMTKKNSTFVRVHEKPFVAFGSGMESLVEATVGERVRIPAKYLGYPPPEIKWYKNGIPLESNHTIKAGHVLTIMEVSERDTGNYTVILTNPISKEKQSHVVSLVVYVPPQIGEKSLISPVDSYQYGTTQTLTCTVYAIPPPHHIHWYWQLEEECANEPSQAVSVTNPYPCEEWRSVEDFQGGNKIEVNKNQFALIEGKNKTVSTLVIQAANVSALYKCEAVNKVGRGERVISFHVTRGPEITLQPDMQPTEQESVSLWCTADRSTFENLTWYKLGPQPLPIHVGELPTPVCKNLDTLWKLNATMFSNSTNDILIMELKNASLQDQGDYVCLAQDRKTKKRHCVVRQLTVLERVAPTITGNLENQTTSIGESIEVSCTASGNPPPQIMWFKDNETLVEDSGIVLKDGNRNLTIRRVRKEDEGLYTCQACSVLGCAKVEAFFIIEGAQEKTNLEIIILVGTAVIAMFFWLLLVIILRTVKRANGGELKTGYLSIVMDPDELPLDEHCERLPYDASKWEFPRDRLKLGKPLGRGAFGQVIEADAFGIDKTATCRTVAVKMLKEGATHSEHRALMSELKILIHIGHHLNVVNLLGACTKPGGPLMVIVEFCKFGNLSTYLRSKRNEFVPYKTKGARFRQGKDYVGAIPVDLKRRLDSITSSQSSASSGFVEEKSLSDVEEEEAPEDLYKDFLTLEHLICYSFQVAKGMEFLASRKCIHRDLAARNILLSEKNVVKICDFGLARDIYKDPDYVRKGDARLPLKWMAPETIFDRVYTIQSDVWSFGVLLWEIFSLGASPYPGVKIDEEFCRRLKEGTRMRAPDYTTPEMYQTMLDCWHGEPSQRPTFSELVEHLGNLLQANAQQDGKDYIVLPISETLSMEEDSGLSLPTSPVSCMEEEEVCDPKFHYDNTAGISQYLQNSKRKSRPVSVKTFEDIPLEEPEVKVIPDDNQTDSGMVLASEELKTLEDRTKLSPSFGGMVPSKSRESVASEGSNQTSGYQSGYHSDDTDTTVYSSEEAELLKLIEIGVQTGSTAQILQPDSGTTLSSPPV

SMILES: CS(=O)(=O)c1ccc(CN2C3CC2CN(c2ccc(-c4cc(-c5cn[nH]c5)cn5ncc(C#N)c45)cn2)C3)cc1 [Example 53, 6-(1Hpyrazol-4-yl)-4-(6-(6-(4-(methylsulfonyl)benzyl)-3,6-diazabicyclo 13.1.11 heptan-3-yl)pyridin-3-yl)pyrazolo[1,5-a]pyridine-3-carbonitrile]
pIC50 (VEGFR2): 8.61
pIC50 (RET^V804M): 9.09
pIC50 (TT cells): 7.84
pIC50 (RET^WT): 10.14

SMILES: CS(=O)(=O)c1ccc(CN2C3CC2CN(c2ccc(-c4cc(-c5cnn(C(F)F)c5)cn5ncc(C#N)c45)cn2)C3)cn1 [Example 77, 6-(1-(difluoromethyl)-1Hpyrazol-4-yl)-4-(6-(6-((6-(methylsulfonyl)pyridin-3-yl)methyl)-3,6-diazabicyclo[3.1.1]heptan-3-yl)pyridin-3-yl)pyrazolo[1,5-a]pyridine-3-carbonitrile]
pIC50 (VEGFR2): 8.12
pIC50 (RET^V804M): 9.10
pIC50 (TT cells): 7.64
pIC50 (RET^WT): 9.33

SMILES: Cn1cc(-c2cc(-c3ccc(N4CC5CC(C4)N5Cc4ccccc4S(C)(=O)=O)nc3)c3c(C#N)cnn3c2)cn1 [Example 43, 6-(1-methyl-1Hpyrazol-4-yl)-4-(6-(6-(2-(methylsulfonyl)benzyl)-3,6-diazabicyclo[3.1.1]heptan-3-yl)pyridin-3-yl)pyrazolo[1,5a]pyridine-3-carbonitrile]
pIC50 (VEGFR2): 7.87
pIC50 (RET^V804M): 9.29
pIC50 (TT cells): 7.79
pIC50 (RET^WT): 9.88

SMILES: Cn1cc(-c2cc(-c3ccc(N4CC5CC(C4)N5Cc4ccc(S(C)(=O)=O)nc4)nc3)c3c(C#N)cnn3c2)cn1 [Example 76, 6-(1-(methyl)-1Hpyrazol-4-yl)-4-(6-(6-((6-(methylsulfonyl)pyridin-3-yl)methyl)-3,6-diazabicyclo[3.1.1]heptan-3-yl)pyridin-3-yl)pyrazolo[1,5-a]pyridine-3-carbonitrile]
pIC50 (VEGFR2): 8.55
pIC50 (RET^V804M): 9.32
pIC50 (TT cells): 7.78
pIC50 (RET^WT): 9.53

SMILES: CS(=O)(=O)c1cccc(CN2C3CC2CN(c2ccc(-c4cc(-c5cnn(C(F)F)c5)cn5ncc(C#N)c45)cn2)C3)c1 [Example 55, 6-(1-difluoromethyl-1Hpyrazol-4-yl)-4-(6-(6-(3-(methylsulfonyl)benzyl)-3,6-diazabicyclo[3.1.1]heptan-3-yl)pyridin-3-yl)pyrazolo[1,5-a]pyridine-3-carbonitrile]
pIC50 (VEGFR2): 7.71
pIC50 (RET^V804M): 9.01
pIC50 (TT cells): 7.81
pIC50 (RET^WT): 9.96

SMILES: COc1ccc(CN2C3CC2CN(c2ccc(-c4cc(N5CC(F)(F)C5)cn5ncc(C#N)c45)cn2)C3)nc1 [Example 46, 6-(3,3-difluoroazetidin-1-yl)-4-(6-(6-((5-methoxypyridin-2-yl)methyl)-3,6-diazabicyclo [3.1.1]heptan-3-yl)pyridin-3-yl) pyrazolo[1,5-a]pyridine-3-carbonitrile]
pIC50 (VEGFR2): 7.76
pIC50 (TT cells): 7.42
pIC50 (RET^WT): 9.80

pIC50 (VEGFR2): 7.54
pIC50 (RET^V804M): 8.50
pIC50 (RET^WT): 9.10
SMILES: COc1ccc(CN2CCN(c3ccc(-c4cc(N5CC(C#N)C5)cn5ncc(C#N)c45)cn3)CC2)cn1 [Example 32, 6-(3-cyanoazetidin-1-yl)-4-(6-(4-((6-methoxypyridin-3-yl)methyl)piperazin-1-yl)pyridin-3-yl)pyrazolo[1,5-a]pyridine-3-carbonitrile]
pIC50 (TT cells): 7.31

pIC50 (VEGFR2): 7.37
pIC50 (RET^WT): 9.19
SMILES: Cn1cc(-c2cc(-c3cnc(N4CCN(Cc5ccc(S(C)(=O)=O)cc5)CC4)cn3)c3c(C#N)cnn3c2)cn1 [Example 42, 6-(1-methyl-1Hpyrazol-4-yl)-4-(5-(4-(4-(methylsulfonyl)benzyl)piperazin-1-yl)pyrazin-2-yl)pyrazolo[1,5-a]pyridine-3-carbonitrile]
pIC50 (TT cells): 7.32

SMILES: Cn1cc(-c2cc(-c3cnc(N4CC5CC(C4)N5Cc4ccc(S(C)(=O)=O)cc4)cn3)c3c(C#N)cnn3c2)cn1 [Example 41, 6-(1-methyl-1Hpyrazol-4-yl)-4-(5-(6-(4-(methylsulfonyl)benzyl)-3,6-diazabicyclo[3.1.1]heptan-3-yl)pyrazin-2-yl)pyrazolo[1,5-a]pyridine-3-carbonitrile]
pIC50 (VEGFR2): 7.76
pIC50 (RET^V804M): 8.98
pIC50 (TT cells): 7.74
pIC50 (RET^WT): 9.45

SMILES: CS(=O)(=O)c1ccccc1CN1C2CC1CN(c1ccc(-c3cc(-c4cnn(C(F)F)c4)cn4ncc(C#N)c34)cn1)C2 [Example 56, 6-(1-difluoromethyl-1Hpyrazol-4-yl)-4-(6-(6-(2-(methylsulfonyl)benzyl)-3,6-diazabicyclo[3.1.1]heptan-3-yl)pyridin-3-yl)pyrazolo[1,5-a]pyridine-3-carbonitrile]
pIC50 (VEGFR2): 7.23
pIC50 (RET^V804M): 8.75
pIC50 (TT cells): 7.40
pIC50 (RET^WT): 10.10

SMILES: Cn1cc(-c2cc(-c3ccc(N4CC5CC(C4)N5Cc4ccc(S(C)(=O)=O)cn4)nc3)c3c(C#N)cnn3c2)cn1 [Example 79, 6-(1-(methyl)-1Hpyrazol-4-yl)-4-(6-(6-((5-(methylsulfonyl)pyridin-2-yl)methyl)-3,6-diazabicyclo[3.1.1]heptan-3-yl)pyridin-3-yl)pyrazolo[1,5-a]pyridine-3-carbonitrile]
pIC50 (VEGFR2): 8.28
pIC50 (RET^V804M): 9.19
pIC50 (TT cells): 7.67
pIC50 (RET^WT): 9.48

SMILES: CS(=O)(=O)c1cccc(CN2C3CC2CN(c2ccc(-c4cc(N5CC(F)(F)C5)cn5ncc(C#N)c45)cn2)C3)c1 [Example 64, 6-(3,3-difluoroazetidin-1-yl)-4-(6-(6-(3-(methylsulfonyl)benzyl)-3,6-diazabicyclo[3.1.1]heptan-3-yl)pyridin-3-yl)pyrazolo[1,5-a]pyridine-3-carbonitrile]
pIC50 (VEGFR2): 7.81
pIC50 (RET^V804M): 8.77
pIC50 (TT cells): 7.37
pIC50 (RET^WT): 9.31

pIC50 (VEGFR2): 7.92
SMILES: CSCCN1CCN(c2ccc(-c3cc(-c4cnn(C)c4)cn4ncc(C#N)c34)cn2)CC1 [Example 21, 6-(1-methyl-1Hpyrazol-4-yl)-4-(6-(4-(2-(methylthio)ethyl)piperazin-1-yl)pyridin-3-yl)pyrazolo[1,5-a]pyridine-3-carbonitrile]
pIC50 (TT cells): 7.55

SMILES: COc1ccc(CN2C3CC2CN(c2cnc(-c4cc(-c5cnn(C)c5)cn5ncc(C#N)c45)cn2)C3)cn1 [Example 3, 4-(5-(6-((6-methoxypyridin-3-yl)methyl)-3,6-diazabicyclo[3.1.1]heptan-3-yl)pyrazin-2-yl)-6-(1-methyl-1Hpyrazol-4-yl) pyrazolo[1,5-a]pyridine-3-carbonitride]
pIC50 (VEGFR2): 8.52
pIC50 (TT cells): 9.00
